Measured values as given in PMC11865982, “Structure–Activity Relationships and Biological Insights into PSMA-617 and Its Derivatives with Modified Lipophilic Linker Regions” (ACS Omega, 2025).

Experiments:
[1] = linker amino acid building block; source not stated; cited from earlier work
[2] = system: PC3-PIP cells; assay: Cellular internalization assay; type: cell-based, human; details: 30 nM radioligand, 45 min 37 °C, average ± SD (n = 3)
Description: To further characterize P17 and P18, internalization assays were conducted to determine whether the structural modifications of the linker have an impact on the uptake of the inhibitor–enzyme complex into the cell, which is critical for efficient retention in vivo.
(§1) Cell culture media and supplements were purchased from PAN Biotech if not stated otherwise. In vitro assays were performed using the sublines of the androgen-independent PC3 human PCa cell line, PSMA-positive (PSMA+) PC3-PIP and PSMA-negative (PSMA−) PC3-flu cells, purchased from Johns Hopkins University (Baltimore, […], USA). Both cell lines were housed in a humidified atmosphere of 5% CO2 at 37 °C and cultured in RPMI-1640 medium supplemented with 10% fetal calf serum (FCS), 1% L-glutamine (L-Gln), and puromycin (2 μg/mL). In addition, cell-binding affinity assays were also performed on PSMA + LNCaP (ATCC CRL-1740) and C4-2 (ATCC CRL-3314) cell lines. LNCaP was derived from a human lymph node metastatic lesion of PCa while C4-2 was isolated from an LNCaP-based tumor xenograft of an androgen-depleted mouse. Both cell lines were cultured as described above but in the absence of puromycin. Routine cell culture was performed twice a week at RT using phosphate-buffered saline (PBS, pH 7.4) for washing and 0.05% trypsin for cell detachment.
Cells (10^5 cells/well) were seeded in poly-L-lysine (PLL)-coated plates 24 h before the experiment. […] Another set of cells was treated analogically while the PSMA-inhibitor 2-(phosphonomethyl)pentane-1,5-dioic acid (2-PMPA; 100 mM, […]) was added in order to subtract the nonspecific binding. The respective radioligand was removed and cells were washed three times with 1 mL ice-cold PBS and the surface-bound radioactivity detached by incubating the cells twice with 500 μL glycine buffer (50 mM, pH 2.8) for 5 min. After washing the cells once with 1 mL ice-cold PBS, the internalized fraction was determined by subsequent cells lysis with 500 μL NaOH (0.3 M, pH 14). […] Three independent assays were performed.

[3] = n-Octanol/PBS distribution coefficient; type: physicochemical; details: n-octanol/PBS pH 7.4
[4] = target: T1, recombinant human PSMA (Homo sapiens, UniProt Q04609); assay: HPLC-based PSMA enzyme inhibition assay with fluorescein-γ-Glu-Glu substrate; type: biochemical; details: 20 pM recombinant human PSMA, 100 nM substrate, 37 °C; average ± SD (n = 3)
T1 construct: extracellular part of human PSMA (amino acids 44–750); made in house; host or cells: Drosophila Schneider's S2 cells (secreted into conditioned medium)
T1 sequence (Q04609 44-750): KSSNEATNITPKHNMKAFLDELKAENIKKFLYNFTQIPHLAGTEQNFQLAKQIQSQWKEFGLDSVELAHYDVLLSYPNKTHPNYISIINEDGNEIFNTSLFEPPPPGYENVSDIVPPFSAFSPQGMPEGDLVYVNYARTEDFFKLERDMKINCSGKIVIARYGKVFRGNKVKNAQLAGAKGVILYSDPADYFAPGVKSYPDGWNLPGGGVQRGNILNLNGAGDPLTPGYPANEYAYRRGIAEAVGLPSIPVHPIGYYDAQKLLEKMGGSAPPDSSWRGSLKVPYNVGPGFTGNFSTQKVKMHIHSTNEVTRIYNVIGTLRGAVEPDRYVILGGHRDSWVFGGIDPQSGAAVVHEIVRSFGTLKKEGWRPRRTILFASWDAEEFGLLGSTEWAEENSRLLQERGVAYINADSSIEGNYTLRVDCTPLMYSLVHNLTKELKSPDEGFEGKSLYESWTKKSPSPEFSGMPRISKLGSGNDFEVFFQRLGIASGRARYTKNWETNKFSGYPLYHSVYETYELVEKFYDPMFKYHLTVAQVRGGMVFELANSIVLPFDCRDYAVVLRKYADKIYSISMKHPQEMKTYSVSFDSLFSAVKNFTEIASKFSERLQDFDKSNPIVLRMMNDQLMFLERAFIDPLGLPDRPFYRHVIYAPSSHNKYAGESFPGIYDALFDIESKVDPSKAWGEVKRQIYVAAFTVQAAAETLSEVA
Description: The potency of the studied inhibitors against recombinant human PSMA was determined in vitro using an HPLC-based assay with fluorescein−γ-Glu–Glu as the substrate.[11]
Expression and purification of the extracellular part of human PSMA (amino acids 44–750) were performed essentially as described previously.[27] Briefly, the N-terminally tagged PSMA fusion was overexpressed in Schneider’s S2 cells and the conditioned medium concentrated and dialyzed by tangential flow filtration (Millipore, Mosheim, France).
The inhibitory potency was determined using a fluorescence-based assay described previously.[11] Briefly, 20 pM recombinant human PSMA was preincubated with a 3-fold dilution series of inhibitors in 50 mM Tris.HCl, 150 mM NaCl, and 0.001% C12 E8 for 10 min at 37 °C. The reaction was initiated by the addition of 100 nM substrate in a total volume 50 μL. Following 15 min incubation at 37 °C, the reaction was stopped by the addition of 50 μL of 0.1% TFA in 5% ACN. Reaction mixtures were analyzed by RP-HPLC (Shimadzu, HPLC Prominence system) equipped with a Kinetex 2.6 μm XB-C18 100 Å column and a fluorescence detector (λEX/λEM = 492/516). HPLC separation was performed using a linear solvent gradient over 11 min from 20 to 50% of eluent B (0.1% (v/v) TFA in ACN) at a flow rate of 0.6 mL/min. The mobile phase A was 0.1% (v/v) TFA in water. The noninhibited reaction was assigned 100% and the reaction without enzyme present was defined as 0%. Data were fitted using a nonlinear regression algorithm (GraphPad Prism Software, version 8) to calculate IC50 values from the inhibition curves. Three independent assays were performed for each compound.

[5] = target: T2, PSMA-positive C4-2 cell line (Homo sapiens, UniProt Q04609); assay: Competitive cell-binding affinity assay against [177Lu]Lu-PSMA-617, C4-2; details: competition with 0.75 nM [177Lu]Lu-PSMA-617, 45 min RT; average ± SD (n = 3)
T2 construct: native LNCaP and LNCaP-derived C4-2 cell lines; host or cells: C4-2
T2 sequence (Q04609 whole entry): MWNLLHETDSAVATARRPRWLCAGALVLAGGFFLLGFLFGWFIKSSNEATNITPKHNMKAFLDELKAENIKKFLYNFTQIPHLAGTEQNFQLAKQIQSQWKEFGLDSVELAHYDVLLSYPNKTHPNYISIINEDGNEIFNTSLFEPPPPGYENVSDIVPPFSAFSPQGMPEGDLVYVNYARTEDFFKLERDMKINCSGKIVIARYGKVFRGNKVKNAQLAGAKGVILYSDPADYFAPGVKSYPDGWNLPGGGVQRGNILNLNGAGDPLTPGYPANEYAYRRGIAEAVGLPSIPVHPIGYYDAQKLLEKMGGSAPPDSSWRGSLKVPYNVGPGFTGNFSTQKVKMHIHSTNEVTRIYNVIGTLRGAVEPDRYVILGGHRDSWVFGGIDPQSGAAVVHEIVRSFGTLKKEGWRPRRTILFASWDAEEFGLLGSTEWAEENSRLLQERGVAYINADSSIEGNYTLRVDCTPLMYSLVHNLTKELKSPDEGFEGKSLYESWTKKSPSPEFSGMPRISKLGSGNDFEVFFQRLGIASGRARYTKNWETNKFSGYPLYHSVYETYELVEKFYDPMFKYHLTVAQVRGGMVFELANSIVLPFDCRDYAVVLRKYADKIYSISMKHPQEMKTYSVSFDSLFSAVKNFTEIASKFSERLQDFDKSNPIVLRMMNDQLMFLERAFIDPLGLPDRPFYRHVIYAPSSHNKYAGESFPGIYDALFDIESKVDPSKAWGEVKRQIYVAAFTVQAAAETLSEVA
Description: (§2) To validate the IC50 values determined by the in vitro enzymatic assay, the PSMA-expressing cell line LNCaP, its daughter cell line C4-2, and the PSMA-overexpressing cell line PC-3 PIP were utilized to compare the cell-binding affinities of P17 and P18 to PSMA-617. The IC50 values of P17 and P18 were assessed by competitive binding against [^177Lu]Lu-PSMA-617. […] For the transfected cell line PC-3 PIP, the IC50 values for all three compounds were determined to be approximately 10-fold higher.
as §1
(§3) The binding affinities of PSMA-617, P17, and P18 were determined using a competitive assay with [^177Lu]Lu-PSMA-617. All three compounds were incubated at 12 different concentrations (0, 0.5, 1, 2.5, 5, 10, 25, 50, 100, 500, 1,000, and 5000 nM) with 0.75 nM [^177Lu]Lu-PSMA-617 on either PSMA + cell lines PC3-PIP, LNCaP, or C4-2 or the PSMA– cell line PC3-flu plated at a concentration of 10^6 cells/well. After 45 min incubation at RT, the radioligand was removed and cells washed twice with 100 μL and once with 200 μL ice-cold PBS. […]

[6] = target: T3, PSMA-overexpressing PC-3 PIP cell line (Homo sapiens, UniProt Q04609); assay: Competitive cell-binding affinity assay against [177Lu]Lu-PSMA-617, PC3-PIP; details: competition with 0.75 nM [177Lu]Lu-PSMA-617, 45 min RT; average ± SD (n = 3)
T3 construct: host or cells: PC3-PIP (subline of the human PC3 prostate cancer line)
T3 sequence (Q04609 whole entry): as above
Description: as §2, §1, §3

[7] = target: T4, PSMA-positive LNCaP cell line (Homo sapiens, UniProt Q04609); assay: Competitive cell-binding affinity assay against [177Lu]Lu-PSMA-617, LNCaP; details: competition with 0.75 nM [177Lu]Lu-PSMA-617, 45 min RT; average ± SD (n = 3)
T4 construct: native LNCaP and LNCaP-derived C4-2 cell lines; host or cells: LNCaP
T4 sequence (Q04609 whole entry): as above
Description: as §2, §1, §3

[8] = Stability in DMSO solution by 1H NMR; type: physicochemical; details: several days
Description: Characterization of the compounds was conducted extensively by one-dimensional (1D) ^1H, ^13C, and ^15N NMR (Figures S10–S15) and two-dimensional (2D) spectra, viz. COSY, HSQC, and HMBC (Figures S16–S21). Previous assignments of analogous compounds[5] were also used to provide unequivocal assignment of the ^1H, ^13C, and ^15N signals except for the DOTA macrocyclic ring assignments which could not be effected with certitude due to dynamic effects causing severe line broadening and thereby precluding correlations in the 2D spectra pertinent to the DOTA ring. The dynamic effects arising from the slow motional averaging of the DOTA ring on the NMR time scale leading to severe broadening of the signals of the DOTA ring were alleviated for the ^13C signals by the acquisition of spectra at lower field. Indeed, not all of the signals of the DOTA ring could be observed in the case of ^15N, unequivocally assigned in the case of ^13C, or uniquely discerned in the case of ^1H. However, all other signals though were able to be fully assigned and the spectra were otherwise fully consistent with the proposed structures and for both P17 and P18 the assigned structures were confirmed in terms of proton count, carbon count, and carbon multiplicities. […]

SMILES | internalized [2] [% AA] | total binding [2] [% AA] | log D [3] | IC50 [4] [nM] | IC50 [5] [nM] | IC50 [6] [nM] | IC50 [7] [nM] | further results
N[C@@H](CC=Cc1ccccc1)C(=O)O [3-styryl-L-Ala] |  |  |  |  |  |  |  | log Kow [1]: < 3
O=C([O-])CN1CCN(CC(=O)[O-])CCN(CC(=O)NC[C@H]2CC[C@H](C(=O)N[C@@H](C/C=C/c3ccccc3)C(=O)NCCCC[C@H](NC(=O)N[C@@H](CCC(=O)O)C(=O)O)C(=O)O)CC2)CCN(CC(=O)[O-])CC1.[177Lu+3] [[^177Lu]Lu-P17] | 8.5 ± 2.4 | 20.1 ± 9.8 | −3.36 ± 0.05 |  |  |  |  | 
O=C([O-])CN1CCN(CC(=O)[O-])CCN(CC(=O)NC[C@H]2CC[C@H](C(=O)N[C@@H](Cc3ccc4ccccc4c3)C(=O)NCCCC[C@H](NC(=O)N[C@@H](CCC(=O)O)C(=O)O)C(=O)O)CC2)CCN(CC(=O)[O-])CC1.[177Lu+3] [[^177Lu]Lu-PSMA-617, reference compound] | 8.2 ± 2.4 | 26.8 ± 14.2 | −3.27 ± 0.05 |  |  |  |  | 
N[C@@H](Cc1ccc2ccccc2c1)C(=O)O [2-naphthyl-L-Ala] |  |  |  |  |  |  |  | log Kow [1]: > 3
O=C(O)CC[C@H](NC(=O)N[C@@H](CCCCNC(=O)[C@H](Cc1ccc2ccccc2c1)NC(=O)[C@H]1CC[C@H](CNC(=O)CN2CCN(CC(=O)O)CCN(CC(=O)O)CCN(CC(=O)O)CC2)CC1)C(=O)O)C(=O)O [PSMA-617] |  |  |  | 0.05 ± 0.03 | 4.9 ± 0.9 | 71 ± 8 | 6.9 ± 2.2 | 
O=C([O-])CN1CCN(CC(=O)[O-])CCN(CC(=O)NCc2ccc(C(=O)N[C@@H](C/C=C/c3ccccc3)C(=O)NCCCC[C@H](NC(=O)N[C@@H](CCC(=O)O)C(=O)O)C(=O)O)cc2)CCN(CC(=O)[O-])CC1.[177Lu+3] [[^177Lu]Lu-P18] | 8.7 ± 2.9 | 33.7 ± 12.8 | −3.35 ± 0.04 |  |  |  |  | 
O=C(O)CC[C@H](NC(=O)N[C@@H](CCCCNC(=O)[C@H](C/C=C/c1ccccc1)NC(=O)[C@H]1CC[C@H](CNC(=O)CN2CCN(CC(=O)O)CCN(CC(=O)O)CCN(CC(=O)O)CC2)CC1)C(=O)O)C(=O)O [P17] |  |  |  | 0.3 ± 0.04 | 15.5 ± 2.5 | 150 ± 30 | 12.9 ± 0.4 | stability in DMSO solution [8]: no sign of decomposition after several days
O=C(O)CC[C@H](NC(=O)N[C@@H](CCCCNC(=O)[C@H](C/C=C/c1ccccc1)NC(=O)c1ccc(CNC(=O)CN2CCN(CC(=O)O)CCN(CC(=O)O)CCN(CC(=O)O)CC2)cc1)C(=O)O)C(=O)O [P18] |  |  |  | 0.45 ± 0.09 | 9.5 ± 3 | 111 ± 9 | 11.2 ± 4.8 | stability in DMSO solution [8]: no sign of decomposition after several days
